Where two headings read alike, the source gives them in different places.
Columns and labels:
[1] = system: H1933; test: Cell viability, H1933 lung cancer cells; type: cell-based, human; conditions: Homo sapiens, read-out: IC50 (−LogM) (converted)
[2] = system: HKE3; test: Cell viability, HKE3 colon cancer cells; type: cell-based, human; conditions: Homo sapiens
[3] = system: ACHN; test: NCI in-vitro testing, ACHN (Renal Cancer)
[4] = system: Hct116; test: Cell viability, Hct116 colon cancer cells; type: cell-based, human; conditions: Homo sapiens, HCT-116, read-out: IC50 (−LogM), Hct116, Colon (converted)
[5] = system: A549 cells; test: Cell viability, A549 lung cancer cells; type: cell-based, human; conditions: Homo sapiens, A549, read-out: IC50 (−LogM), A549, Lung (converted)
[6] = system: Heb46; test: Cell viability, Heb46 kidney cells; type: cell-based
[7] = system: UACC-62; test: NCI in-vitro testing, UACC-62 (Melanoma)
[8] = system: H226B cells; test: Cell viability, H226B lung cancer cells; type: cell-based, human; conditions: Homo sapiens
[9] = system: AsPC-1; test: Cell viability, AsPC-1 pancreatic cancer cells; type: cell-based, human; conditions: Homo sapiens, ASPC1, read-out: IC50 (−LogM), ASPC1, Pancrease (converted)
[10] = system: DLD1; test: Cell viability, DLD1 colon cancer cells; type: cell-based, human; conditions: Homo sapiens, DLD-1, read-out: IC50 (−LogM) (converted)
[11] = system: H1299 cells; test: Cell viability, H1299 lung cancer cells; type: cell-based, human; conditions: Homo sapiens, NCI-H1299, read-out: IC50 (−LogM), h1299, Lung (converted)
[12] = system: M14; test: NCI in-vitro testing, M14 (Melanoma)
[13] = system: KM12; test: NCI in-vitro testing, KM12 (Colon Cancer); conditions: KM12
[14] = system: MCF7; test: NCI in-vitro testing, MCF7 (Breast Cancer)
[15] = system: CT116P53; test: Cell viability, CT116P53 colon cancer cells; type: cell-based, human; conditions: Homo sapiens, read-out: IC50 (−LogM) (converted)
[16] = system: NCI/ADR-RES; test: NCI in-vitro testing, NCI/ADR-RES (Breast Cancer)
[17] = system: Capanc-1; test: Cell viability, Capanc-1 pancreatic cancer cells; type: cell-based, human; conditions: Homo sapiens, Pancreatic cancer cell, read-out: IC50 (−LogM), capanc1, Pancrease (converted)
[18] = system: SF-539; test: NCI in-vitro testing, SF-539 (CNS Cancer)
[19] = system: Ovcar3; test: Cell viability, Ovcar3 ovary cancer cells; type: cell-based; conditions: Homo sapiens, OVCAR-3
[20] = system: Heb44; test: Cell viability, Heb44 kidney cells; type: cell-based
[21] = system: H2009; test: Cell viability, H2009 lung cancer cells; type: cell-based, human; conditions: Homo sapiens, NCI-H2009, read-out: IC50 (−LogM) (converted)
[22] = system: H1395; test: Cell viability, H1395 lung cancer cells; type: cell-based, human; conditions: Homo sapiens, NCI-H1395, read-out: IC50 (−LogM) (converted)
[23] = system: A549CK8; test: Cell viability, A549CK8 lung cancer cells; type: cell-based, human; conditions: Homo sapiens, read-out: IC50 (−LogM) (converted)
[24] = system: NCI-H460; test: NCI in-vitro testing, NCI-H460 (Non-Small Cell Lung Cancer)
[25] = system: H2122; test: Cell viability, H2122 lung cancer cells; type: cell-based, human; conditions: Homo sapiens, NCI-H2122, read-out: IC50 (−LogM) (converted)
[26] = system: miapac; test: Cell viability, miapac pancreatic cancer cells; type: cell-based, human; conditions: Homo sapiens, Pancreatic cancer cell, read-out: IC50 (−LogM) (converted)

In the case of `O=Cc1cn(Cc2cccc(Cl)c2)c2ccccc12` [Oncrasin K027, 1-(3-chlorobenzyl)-1H-indole-3-carbaldehyde], the IC50 [1] is reported as under 31.6 µM, the IC50 ([2]; read-out: IC50 (−LogM), HKE3, Colon, first HKE3 line (converted)) is reported as 1 µM and the IC50 ([2]; read-out: IC50 (−LogM), HKE3, Colon, second HKE3 line (converted)) is reported as 1.26 µM. The TGI [3] was 2.25E−5 Molar, the GI50 ([3]; Homo sapiens) was 2.88 µM and the CC50 ([3]; Homo sapiens, read-out: LC50) was over 100 µM. For the same molecule, the “Percent Growth” value ([3]; Log10 Concentration −4.0 Molar) was −30%, the “Percent Growth” value ([3]; Log10 Concentration −5.0 Molar) was 16% and the “Percent Growth” value ([3]; Log10 Concentration −6.0 Molar) was 76%. For the same molecule, the “Percent Growth” value ([3]; Log10 Concentration −7.0 Molar) was 92%, the “Percent Growth” value ([3]; Log10 Concentration −8.0 Molar) was 99% and the IC50 [4] was 3.98 µM. For the same molecule, the IC50 [5] was 10 µM, the IC50 [6] was 2 µM and the GI50 ([7]; Homo sapiens, UACC-62) was 0.0451 µM. For the same molecule, the CC50 ([7]; Homo sapiens, UACC-62, read-out: LC50) was 11.4 µM, the TGI ([7]; UACC-62) was 8.97E−7 Molar and the “Percent Growth” value ([7]; UACC-62, Log10 Concentration −4.0 Molar) was −94%. The “Percent Growth” value ([7]; UACC-62, Log10 Concentration −5.0 Molar) was −47%, the “Percent Growth” value ([7]; UACC-62, Log10 Concentration −6.0 Molar) was −2% and the “Percent Growth” value ([7]; UACC-62, Log10 Concentration −7.0 Molar) was 35%. For the same molecule, the “Percent Growth” value ([7]; UACC-62, Log10 Concentration −8.0 Molar) was 79%, the IC50 ([8]; read-out: IC50 (−LogM), H226B, Lung, first H226B line (converted)) was 0.316 µM and the IC50 ([8]; read-out: IC50 (−LogM), H226B, Lung, second H226B line (converted)) was 3.98 µM. It also gave an IC50 [9] of 15.8 µM, an IC50 [10] of under 31.6 µM and an IC50 [11] of 15.8 µM. It also gave a GI50 ([12]; Homo sapiens, M14) of 5.16 µM, a CC50 ([12]; Homo sapiens, M14, read-out: LC50) of 55.9 µM and a TGI ([12]; M14) of 2.03E−5 Molar. For the same molecule, the “Percent Growth” value ([12]; M14, Log10 Concentration −4.0 Molar) was −79%, the “Percent Growth” value ([12]; M14, Log10 Concentration −5.0 Molar) was 35% and the “Percent Growth” value ([12]; M14, Log10 Concentration −6.0 Molar) was 87%. The “Percent Growth” value ([12]; M14, Log10 Concentration −7.0 Molar) was 94%, the “Percent Growth” value ([12]; M14, Log10 Concentration −8.0 Molar) was 95% and the TGI [13] was 4.15E−5 Molar. The “Percent Growth” value ([13]; Log10 Concentration −4.0 Molar) was −54%, the “Percent Growth” value ([13]; Log10 Concentration −5.0 Molar) was 87% and the “Percent Growth” value ([13]; Log10 Concentration −6.0 Molar) was 102%. For the same molecule, the “Percent Growth” value ([13]; Log10 Concentration −7.0 Molar) was 113%, the “Percent Growth” value ([13]; Log10 Concentration −8.0 Molar) was 108% and the GI50 ([14]; Homo sapiens, MCF7) was 0.0873 µM. The CC50 ([14]; Homo sapiens, MCF7, read-out: LC50) was over 100 µM, the TGI ([14]; MCF7) was 2.75E−5 Molar and the “Percent Growth” value ([14]; MCF7, Log10 Concentration −4.0 Molar) was −10%. The “Percent Growth” value ([14]; MCF7, Log10 Concentration −5.0 Molar) was 8%, the “Percent Growth” value ([14]; MCF7, Log10 Concentration −6.0 Molar) was 10% and the “Percent Growth” value ([14]; MCF7, Log10 Concentration −7.0 Molar) was 45%. For the same molecule, the “Percent Growth” value ([14]; MCF7, Log10 Concentration −8.0 Molar) was 75%, the IC50 [15] was under 31.6 µM and the TGI [16] was 3.32E−6 Molar. The GI50 ([16]; Homo sapiens) was 9.22 µM, the CC50 ([16]; Homo sapiens, read-out: LC50) was over 100 µM and the “Percent Growth” value ([16]; Log10 Concentration −4.0 Molar) was −45%. For the same molecule, the “Percent Growth” value ([16]; Log10 Concentration −5.0 Molar) was 48%, the “Percent Growth” value ([16]; Log10 Concentration −6.0 Molar) was 85% and the “Percent Growth” value ([16]; Log10 Concentration −7.0 Molar) was 94%. For the same molecule, the “Percent Growth” value ([16]; Log10 Concentration −8.0 Molar) was 103%, the IC50 [17] was 31.6 µM and the GI50 ([18]; Homo sapiens, SF-539) was 10.9 µM. The CC50 ([18]; Homo sapiens, SF-539, read-out: LC50) was 86.6 µM, the TGI ([18]; SF-539) was 2.70E−5 Molar and the “Percent Growth” value ([18]; SF-539, Log10 Concentration −4.0 Molar) was −73%. For the same molecule, the “Percent Growth” value ([18]; SF-539, Log10 Concentration −5.0 Molar) was 55%, the “Percent Growth” value ([18]; SF-539, Log10 Concentration −6.0 Molar) was 104% and the “Percent Growth” value ([18]; SF-539, Log10 Concentration −7.0 Molar) was 110%. For the same molecule, the “Percent Growth” value ([18]; SF-539, Log10 Concentration −8.0 Molar) was 108%, the IC50 [19] was 3.16 µM and the IC50 [20] was 0.0631 µM. The IC50 [21] was under 31.6 µM, the IC50 [22] was under 31.6 µM and the IC50 [23] was 15.8 µM. It also gave a TGI [24] of 3.79E−5 Molar, a GI50 ([24]; Homo sapiens, NCI-H460) of 0.0888 µM and a CC50 ([24]; Homo sapiens, NCI-H460, read-out: LC50) of over 100 µM. For the same molecule, the “Percent Growth” value ([24]; Log10 Concentration −4.0 Molar) was −9%, the “Percent Growth” value ([24]; Log10 Concentration −5.0 Molar) was 13% and the “Percent Growth” value ([24]; Log10 Concentration −6.0 Molar) was 20%. The “Percent Growth” value ([24]; Log10 Concentration −7.0 Molar) was 48%, the “Percent Growth” value ([24]; Log10 Concentration −8.0 Molar) was 79% and the IC50 [25] was 0.631 µM. It also gave an IC50 [26] of under 31.6 µM.

Reference: US8883841B2, “Oncogenic ras-specific cytotoxic compound and methods of use thereof” (The Board of Regents of the University of Texas System, priority 2005, dated 2014)
